Data published in the supplement of paper PMC10307832.

Tests used:
Assay in all cases: relative viability (nuclei count vs DMSO), 5 days (fraction); higher = more cells survive
Crizotinib + Trametinib = compound: C[C@@H](Oc1cc(-c2cnn(C3CCNCC3)c2)cnc1N)c1c(Cl)ccc(F)c1Cl [Crizotinib] + CC(=O)Nc1cccc(-n2c(=O)n(C3CC3)c(=O)c3c(Nc4ccc(I)cc4F)n(C)c(=O)c(C)c32)c1 [Trametinib] (partner 0.02 µM)
In short: (§1)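 Nuclei were stained with Hoechst during a one-step fixation (final 0.05% Triton X-100, 1% formaldehyde, 1 ug/ml Hoechst) carried out 5 days after dosing, then counted on 4× images. The cells, lung cancer lines in 1536-well plates, had been dosed by pin tool the day after seeding with one drug alone or a fixed anchor-drug dose plus five library-drug doses (not always all listed) in √10 steps. Relative viability is the nuclei count in treated wells divided by that in vehicle wells, and each value is the median of duplicate plates.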

Olaparib + Trametinib = compound: O=C(c1cc(Cc2n[nH]c(=O)c3ccccc23)ccc1F)N1CCN(C(=O)C2CC2)CC1 [Olaparib] + CC(=O)Nc1cccc(-n2c(=O)n(C3CC3)c(=O)c3c(Nc4ccc(I)cc4F)n(C)c(=O)c(C)c32)c1 [Trametinib] (partner 0.02 µM)
In short: as §1

Carfilzomib + Decitabine = compound: CC(C)C[C@H](NC(=O)[C@H](CCc1ccccc1)NC(=O)CN1CCOCC1)C(=O)N[C@@H](Cc1ccccc1)C(=O)N[C@@H](CC(C)C)C(=O)[C@@]1(C)CO1 [Carfilzomib] + Nc1ncn([C@H]2C[C@H](O)[C@@H](CO)O2)c(=O)n1 [Decitabine] (partner 2 µM)
In short: as §1

Crizotinib + Palbociclib = compound: C[C@@H](Oc1cc(-c2cnn(C3CCNCC3)c2)cnc1N)c1c(Cl)ccc(F)c1Cl [Crizotinib] + CC(=O)c1c(C)c2cnc(Nc3ccc(N4CCNCC4)cn3)nc2n(C2CCCC2)c1=O [Palbociclib] (partner 0.5 µM)
In short: as §1

Cell Line	relative viability (Crizotinib + Trametinib; first compound 0.01 µM)	relative viability (Crizotinib + Trametinib; first compound 0.03162 µM)	relative viability (Crizotinib + Trametinib; first compound 0.1 µM)	relative viability (Crizotinib + Trametinib; first compound 0.3162 µM)	relative viability (Crizotinib + Trametinib; first compound 1 µM)	relative viability (Olaparib + Trametinib; first compound 0.08 µM)	relative viability (Olaparib + Trametinib; first compound 0.253 µM)	relative viability (Olaparib + Trametinib; first compound 2.53 µM)	relative viability (Olaparib + Trametinib; first compound 8 µM)	relative viability (Carfilzomib + Decitabine; first compound 0.001 µM)	relative viability (Carfilzomib + Decitabine; first compound 0.003162 µM)	relative viability (Carfilzomib + Decitabine; first compound 0.01 µM)	relative viability (Carfilzomib + Decitabine; first compound 0.03162 µM)	relative viability (Carfilzomib + Decitabine; first compound 0.1 µM)	relative viability (Crizotinib + Palbociclib; first compound 0.01 µM)	relative viability (Crizotinib + Palbociclib; first compound 0.03162 µM)	relative viability (Crizotinib + Palbociclib; first compound 0.1 µM)	relative viability (Crizotinib + Palbociclib; first compound 0.3162 µM)	relative viability (Crizotinib + Palbociclib; first compound 1 µM)
NCI-H647	0.43	0.575	0.435	0.436	0.559	0.471	0.424	0.54	0.523	0.365	0.321	0.274	0.049	0.0498	0.358	0.421	0.368	0.404	0.526
NCI-H650	0.955	1.04	–	–	–	0.893	0.939	0.915	0.782	0.342	0.314	0.316	0.31	0.139	0.346	0.32	0.352	–	0.375
NCI-H661	0.536	0.563	0.536	0.61	0.549	0.602	0.5	0.569	0.525	0.583	0.585	0.568	0.598	0.394	0.376	0.425	0.44	0.435	0.423
NCI-H727	0.356	0.427	0.344	0.434	0.381	0.415	0.363	0.37	0.349	0.897	0.937	0.836	0.9	0.746	0.703	0.621	0.655	0.639	0.595
NCI-H838	0.474	0.513	0.576	0.515	0.498	0.585	0.493	0.536	0.547	0.437	0.498	0.434	0.27	0.178	0.178	0.248	0.225	0.239	0.236
NCI-H1355	0.416	0.409	0.45	0.396	0.404	0.385	0.433	0.481	0.476	0.379	0.402	0.353	0.377	0.157	0.415	0.378	0.387	0.406	0.406
NCI-H1395	0.951	1.05	1.04	0.971	1.1	1.11	0.876	0.852	0.629	–	0.756	0.602	0.441	0.319	0.608	0.593	0.625	0.596	0.643
NCI-H1437	0.542	0.577	0.544	0.457	0.608	0.535	0.469	0.503	0.504	0.58	0.599	0.567	0.413	0.316	0.283	0.328	0.302	0.309	0.356
NCI-H1648	–	0.462	0.539	0.483	0.463	0.455	0.513	–	0.418	0.447	0.495	0.474	0.404	0.255	–	0.262	0.264	0.275	0.318
NCI-H1650	0.548	0.605	0.607	0.559	0.58	0.6	0.503	0.62	0.565	0.42	0.522	0.359	0.148	0.177	0.26	0.359	0.379	0.391	0.319
NCI-H1651	0.802	0.832	0.822	0.792	0.803	0.849	0.75	0.642	0.504	0.467	0.677	0.32	0.163	0.0885	0.507	0.544	0.505	0.534	0.529
NCI-H1666	0.838	0.865	0.866	–	0.902	0.872	0.95	0.791	0.765	0.707	0.782	0.751	0.704	0.403	0.678	0.685	0.712	0.625	0.623
NCI-H1734	0.684	0.621	0.629	–	0.67	0.688	0.583	0.718	0.565	0.482	0.517	0.48	0.474	0.136	0.346	0.327	0.327	–	0.341
NCI-H1755	0.776	0.744	0.85	0.756	0.742	0.728	0.738	0.784	0.725	0.732	0.729	0.669	0.755	0.446	0.465	0.445	0.445	0.457	0.451
NCI-H1792	0.492	0.526	0.365	–	0.453	0.461	0.448	0.382	0.398	–	0.592	0.619	0.542	0.207	0.588	0.692	0.639	–	0.68
NCI-H1915	0.286	0.31	0.32	0.293	0.313	0.278	0.285	0.261	0.206	0.257	0.296	0.24	0.259	0.106	0.517	0.525	0.488	0.51	0.476
NCI-H1944	0.408	0.426	0.428	0.372	0.417	0.435	0.376	0.372	0.328	0.405	0.447	0.449	0.453	0.234	0.284	0.315	0.307	0.345	0.344

Cell Line	relative viability (Crizotinib + Trametinib; first compound 0.01 µM)	relative viability (Crizotinib + Trametinib; first compound 0.03162 µM)	relative viability (Crizotinib + Trametinib; first compound 0.1 µM)	relative viability (Crizotinib + Trametinib; first compound 0.3162 µM)	relative viability (Crizotinib + Trametinib; first compound 1 µM)	relative viability (Olaparib + Trametinib; first compound 0.08 µM)	relative viability (Olaparib + Trametinib; first compound 0.253 µM)	relative viability (Olaparib + Trametinib; first compound 2.53 µM)	relative viability (Olaparib + Trametinib; first compound 8 µM)	relative viability (Carfilzomib + Decitabine; first compound 0.001 µM)	relative viability (Carfilzomib + Decitabine; first compound 0.003162 µM)	relative viability (Carfilzomib + Decitabine; first compound 0.01 µM)	relative viability (Carfilzomib + Decitabine; first compound 0.03162 µM)	relative viability (Carfilzomib + Decitabine; first compound 0.1 µM)	relative viability (Crizotinib + Palbociclib; first compound 0.01 µM)	relative viability (Crizotinib + Palbociclib; first compound 0.03162 µM)	relative viability (Crizotinib + Palbociclib; first compound 0.1 µM)	relative viability (Crizotinib + Palbociclib; first compound 0.3162 µM)	relative viability (Crizotinib + Palbociclib; first compound 1 µM)
NCI-H1975	0.338	0.326	0.363	0.373	0.402	0.329	0.349	0.395	0.307	0.378	0.451	0.365	0.132	0.147	0.594	0.792	0.554	0.475	0.493
NCI-H1993	0.631	0.454	0.506	1.07	0.46	0.559	0.57	0.517	0.384	0.542	0.589	0.658	0.541	0.461	0.641	0.67	0.666	0.535	0.426
NCI-H2009	0.268	0.277	0.26	0.217	0.301	0.275	0.283	0.315	0.267	0.401	0.391	0.401	0.268	0.0605	0.185	0.208	0.249	0.189	0.193
NCI-H2023	0.487	0.489	0.484	0.343	0.468	0.59	0.514	0.525	0.489	0.184	0.23	0.173	0.203	0.0666	0.356	0.308	0.353	0.229	0.236
NCI-H2085	0.515	0.485	0.691	0.479	0.529	0.619	0.528	0.504	0.523	0.589	0.608	0.584	0.421	0.297	0.464	0.484	0.469	0.442	0.44
NCI-H2087	0.145	0.206	0.214	0.23	0.172	0.219	0.208	0.215	0.188	0.214	0.247	0.179	0.0542	0.0427	0.178	0.244	0.213	0.229	0.23
NCI-H2126	0.511	0.539	0.557	0.55	0.591	0.527	0.55	0.584	0.596	0.627	0.625	0.552	0.597	0.555	0.313	0.385	0.37	0.342	0.351
NCI-H2170	0.859	0.993	0.869	0.928	0.909	0.937	0.925	0.883	0.8	0.451	0.474	0.448	0.477	0.22	0.38	0.435	0.362	0.384	0.381
NCI-H2342	0.818	0.896	0.78	0.868	0.829	0.8	0.871	0.802	0.742	0.711	0.78	0.782	0.887	0.585	0.527	0.549	0.531	0.485	0.576
NCI-H2347	0.265	0.274	0.292	0.321	0.272	0.282	0.274	0.274	0.248	0.625	0.608	0.66	0.594	0.389	0.384	0.441	0.465	0.437	0.335
NCI-H2405	0.537	0.636	0.657	0.619	0.711	0.767	0.597	0.677	0.641	0.803	0.881	0.763	0.57	0.225	0.479	0.515	0.509	0.56	0.501
NCI-H3122	0.207	0.219	0.197	0.21	0.238	0.219	0.238	0.241	0.203	0.451	0.441	0.421	0.462	0.216	0.176	0.184	0.16	0.2	0.187
PC-3 [JPC-3]	0.634	0.721	0.759	–	0.651	0.777	–	0.712	0.744	0.832	0.879	0.89	0.64	0.301	0.53	0.566	0.545	–	0.553
PC-14	0.842	0.742	0.78	0.699	0.756	0.937	0.646	0.434	0.456	0.198	0.273	0.23	0.0558	0.0667	0.52	0.53	0.419	0.566	0.535
RERF-LC-KJ	0.955	0.885	0.831	0.827	0.905	0.98	0.825	0.949	0.878	0.744	0.721	0.807	0.422	0.207	0.98	1.12	0.925	0.991	1.06
SK-LU-1	0.455	0.396	0.539	0.457	0.512	0.515	0.402	0.496	0.417	0.591	0.713	0.625	0.262	0.23	0.391	0.359	0.38	0.361	0.436
SK-MES-1	0.511	0.561	0.54	0.621	0.57	0.577	0.539	0.608	0.616	0.385	0.375	0.437	0.356	0.181	0.295	0.318	0.341	0.312	0.302
